Data published in US20240018158A1, “BRM TARGETING COMPOUNDS AND ASSOCIATED METHODS OF USE” (Prelude Therapeutics Incorporated, priority 2020, published 2024).

Molecular target: SMARCA2 (Homo sapiens (Human), UniProt P51531)
Test: SMARCA2 HiBiT degradation assay in HEK293T cells
Type: cell-based
Conditions: 293T HiBiT assay, 24 h; for DC50: read-out: DC50 (SM2-293T) SMARCA2 degradation potency; for Dmax: HEK-293T, read-out: Dmax % (SM2-293T) maximum SMARCA2 degradation within the concentrations tested
Description: HiBiT peptide knock-in of SMARCA2 in LgBiT expressing HEK293T cells was performed by CRISPR-mediated tagging system as described Promega. The homozygous HiBiT knock-in on c-terminus SMARCA2 was confirmed by sanger sequence. SMARCA2-HiBiT knock-in Hela monoclonal cell (CS302366) and SMARCA4-HiBiT knock-in Hela monoclonal cell (CS3023226) were purchased from Promega. The heterozygous HiBiT-knock-in was confirmed by sanger sequence in both SMARCA2-HiBiT and SMARCA4-HiBiT monoclonal cells. Compounds were prepared in a low dead volume plate at 3-fold serial dilution, and then transferred 25 nL/well into a 384 well plate (Corning: #356661) by Agilent Bravo liquid dispenser. SMARCA2-HiBiT monoclonal HEK293T cells were added at 5,000/well/25 uL into the compound containing 384 well plate. After 24 h incubation, 25 uL/well of Nano-Glo HiBiT Lytic detection buffer (Promega: N3050) was added to the wells and incubate for 10 min on a shaker, centrifuged for 5 min, and then RLU was detected on a microplate reader (Envision, PerkinElmer). The RLU ratio values are normalized to percent inhibition as follows: % inhibition=((HC−LC)−(compound−LC))/(HC−LC))*100, where HC=high control=mean signal of DMSO only; LC=low control=mean signal of 100% inhibition of RLU by 1 μM PRT1001728. An 11-point dose response curve for each compound will be generated using normalized % inhibition to determine IC50 values based on the equation: Y=Bottom+((Top-Bottom)/(1+((IC50/X)^Slope))), where Y is the % inhibition in the presence of X inhibitor concentration; Top=the top plateau of the curve; Bottom=the bottom plateau of the curve; Slope=Hill coefficient; DC50=concentration of compound with 50% degradation in relation to top/high control. DC50 values were determined by using XLfit Model 205.

SMARCA2, sequence (P51531 whole entry): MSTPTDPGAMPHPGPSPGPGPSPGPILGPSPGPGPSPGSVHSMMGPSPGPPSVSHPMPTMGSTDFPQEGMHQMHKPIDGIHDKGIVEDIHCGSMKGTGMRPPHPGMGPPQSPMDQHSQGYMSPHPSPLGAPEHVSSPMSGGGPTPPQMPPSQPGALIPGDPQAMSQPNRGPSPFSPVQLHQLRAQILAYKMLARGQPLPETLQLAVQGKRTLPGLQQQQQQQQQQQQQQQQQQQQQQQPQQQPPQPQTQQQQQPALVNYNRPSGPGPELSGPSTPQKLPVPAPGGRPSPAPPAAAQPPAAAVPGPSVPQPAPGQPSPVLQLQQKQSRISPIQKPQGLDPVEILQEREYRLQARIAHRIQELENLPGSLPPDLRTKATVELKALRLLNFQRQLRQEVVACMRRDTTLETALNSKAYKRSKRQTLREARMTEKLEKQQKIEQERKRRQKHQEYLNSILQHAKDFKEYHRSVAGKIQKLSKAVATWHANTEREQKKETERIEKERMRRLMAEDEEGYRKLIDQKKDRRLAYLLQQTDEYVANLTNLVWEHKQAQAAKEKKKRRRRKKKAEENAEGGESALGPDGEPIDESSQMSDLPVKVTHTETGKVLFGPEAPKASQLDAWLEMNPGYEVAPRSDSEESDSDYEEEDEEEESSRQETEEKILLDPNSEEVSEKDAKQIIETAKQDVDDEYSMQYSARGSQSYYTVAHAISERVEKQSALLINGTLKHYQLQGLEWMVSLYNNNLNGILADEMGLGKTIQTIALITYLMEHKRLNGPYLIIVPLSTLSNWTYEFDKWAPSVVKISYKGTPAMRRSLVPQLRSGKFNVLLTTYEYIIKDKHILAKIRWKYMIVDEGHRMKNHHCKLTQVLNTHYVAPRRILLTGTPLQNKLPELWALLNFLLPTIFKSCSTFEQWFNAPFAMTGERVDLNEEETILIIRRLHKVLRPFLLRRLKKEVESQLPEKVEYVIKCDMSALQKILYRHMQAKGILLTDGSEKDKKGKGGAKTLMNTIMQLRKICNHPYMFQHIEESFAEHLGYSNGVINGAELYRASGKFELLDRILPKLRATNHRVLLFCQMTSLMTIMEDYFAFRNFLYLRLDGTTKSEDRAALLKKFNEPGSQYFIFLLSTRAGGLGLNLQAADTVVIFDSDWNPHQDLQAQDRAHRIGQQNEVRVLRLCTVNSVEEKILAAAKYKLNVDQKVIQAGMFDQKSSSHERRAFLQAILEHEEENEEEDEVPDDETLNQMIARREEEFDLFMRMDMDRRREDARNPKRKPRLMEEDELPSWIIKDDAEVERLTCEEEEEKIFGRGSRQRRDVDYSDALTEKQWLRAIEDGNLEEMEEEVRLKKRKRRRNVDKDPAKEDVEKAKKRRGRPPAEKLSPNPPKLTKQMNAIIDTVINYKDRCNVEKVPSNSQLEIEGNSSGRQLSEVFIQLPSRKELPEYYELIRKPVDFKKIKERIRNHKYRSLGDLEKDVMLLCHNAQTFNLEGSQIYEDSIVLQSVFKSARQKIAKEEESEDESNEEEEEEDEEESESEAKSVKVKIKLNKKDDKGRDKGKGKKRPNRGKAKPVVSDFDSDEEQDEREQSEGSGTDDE

| SMILES | DC50 [nM] | Dmax [%] |
| --- | --- | --- |
| Cc1ncsc1-c1ccc([C@H](C)NC(=O)[C@@H]2C[C@@H](O)CN2C(=O)[C@@H](c2cc(OCCN3CC4CC(C3)C4N3CCN4c5cc(-c6ccccc6O)nnc5NCC4C3)no2)C(C)C)cc1 (stereo partly drawn) [Example 12, (2S,4R)-4-hydroxy-1-((2R)-2-(3-(2-(6-(2-(2-hydroxyphenyl)-5,6,6a,7,9,10-hexahydro-8H-pyrazino[1′,2′:4,5]pyrazino[2,3-c]pyridazin-8-yl)-3-azabicyclo[3.1.1]heptan-3-yl)ethoxy)isoxazol-5-yl)-3-methylbutanoyl)-N-((S)-1-(4-(4-methylthiazol-5-yl)phenyl)ethyl)pyrrolidine-2-carboxamide] | 100 to 1000 | > 75 |
| Cc1ncsc1-c1ccc([C@H](C)NC(=O)[C@@H]2C[C@@H](O)CN2C(=O)[C@@H](c2cc(OC(C)CN3CCCC(CN4CCN5c6cc(-c7ccccc7O)nnc6NC[C@H]5C4)C3)no2)C(C)C)cc1 (stereo partly drawn) [Example 24, (2S,4R)-4-hydroxy-1-((2R)-2-(3-((1-(3-(((S)-2-(2-hydroxyphenyl)-5,6,6a,7,9,10-hexahydro-8H-pyrazino[1′,2′:4,5]pyrazino[2,3-c]pyridazin-8-yl)methyl)piperidin-1-yl)propan-2-yl)oxy)isoxazol-5-yl)-3-methylbutanoyl)-N-((S)-1-(4-(4-methylthiazol-5-yl)phenyl)ethyl)pyrrolidine-2-carboxamide] | < 100 | – |
| Cc1ncsc1-c1ccc([C@H](C)NC(=O)[C@@H]2C[C@@H](O)CN2C(=O)[C@@H](c2cc(CCN3CCC(N4CCN5c6cc(-c7ccccc7O)nnc6NC[C@H]5C4)CC3)no2)C(C)C)cc1 [Example 91, (2S,4R)-4-hydroxy-1-((R)-2-(3-(2-(4-((S)-2-(2-hydroxyphenyl)-5,6,6a,7,9,10-hexahydro-8H-pyrazino[1′,2′:4,5]pyrazino[2,3-c]pyridazin-8-yl)piperidin-1-yl)ethyl)isoxazol-5-yl)-3-methylbutanoyl)-N-((S)-1-(4-(4-methylthiazol-5-yl)phenyl)ethyl)pyrrolidine-2-carboxamide] | < 100 | > 75 |
| Cc1ncsc1-c1ccc([C@H](C)NC(=O)[C@@H]2C[C@@H](O)CN2C(=O)[C@@H](c2cc(CN3CCC(N4CCN5c6cc(-c7ccccc7O)nnc6NC[C@H]5C4)CC3)no2)C(C)C)cc1 [Example 39, (2S,4R)-4-hydroxy-1-((R)-2-(3-((4-((S)-2-(2-hydroxyphenyl)-5,6,6a,7,9,10-hexahydro-8H-pyrazino[1′,2′:4,5]pyrazino[2,3-c]pyridazin-8-yl)piperidin-1-yl)methyl)isoxazol-5-yl)-3-methylbutanoyl)-N-((S)-1-(4-(4-methylthiazol-5-yl)phenyl)ethyl)pyrrolidine-2-carboxamide] | < 100 | > 75 |
| Cc1ncsc1-c1ccc([C@H](C)NC(=O)[C@@H]2C[C@@H](O)CN2C(=O)[C@@H](NC(=O)COCCN2CCN3c4cc(-c5ccccc5O)nnc4NCC3C2)C(C)(C)C)cc1 (stereo partly drawn) [Example 65, (2S,4R)-4-hydroxy-1-((2S)-2-(2-(2-(2-(2-hydroxyphenyl)-5,6,6a,7,9,10-hexahydro-8H-pyrazino[1′,2′:4,5]pyrazino[2,3-c]pyridazin-8-yl)ethoxy)acetamido)-3,3-dimethylbutanoyl)-N-((S)-1-(4-(4-methylthiazol-5-yl)phenyl)ethyl)pyrrolidine-2-carboxamide] | 100 to 1000 | > 75 |
| CC(C)[C@@H](C(=O)N1C[C@H](O)C[C@H]1C(=O)N[C@@H](C)c1ccc(C#N)cc1)c1cc(OCCN2CCC(CN3CCN4c5cc(-c6ccccc6O)nnc5NC[C@H]4C3)CC2)no1 [Example 35, (2S,4R)—N-((S)-1-(4-cyanophenyl)ethyl)-4-hydroxy-1-((R)-2-(3-(2-(4-(((S)-2-(2-hydroxyphenyl)-5,6,6a,7,9,10-hexahydro-8H-pyrazino[1′,2′:4,5]pyrazino[2,3-c]pyridazin-8-yl)methyl)piperidin-1-yl)ethoxy)isoxazol-5-yl)-3-methylbutanoyl)pyrrolidine-2-carboxamide] | < 100 | > 75 |
| Cc1ncsc1-c1ccc([C@H](C)NC(=O)[C@@H]2C[C@@H](O)CN2C(=O)[C@@H](c2cc(OCCN3CCCC(CN4CCN5c6cc(-c7ccccc7O)nnc6NC[C@H]5C4)C3)no2)C(C)C)cc1 (single isomer, unassigned) [Example 85] | < 100 | > 75 |
| Cc1ncsc1-c1ccc([C@H](C)NC(=O)[C@@H]2C[C@@H](O)CN2C(=O)[C@@H](c2cc(OCCN3CC4(CC(N5CCN6c7cc(-c8ccccc8O)nnc7NCC6C5)C4)C3)no2)C(C)C)cc1 (stereo partly drawn) [Example 13, (2S,4R)-4-hydroxy-1-((2R)-2-(3-(2-(6-(2-(2-hydroxyphenyl)-5,6,6a,7,9,10-hexahydro-8H-pyrazino[1′,2′:4,5]pyrazino[2,3-c]pyridazin-8-yl)-2-azaspiro[3.3]heptan-2-yl)ethoxy)isoxazol-5-yl)-3-methylbutanoyl)-N-((S)-1-(4-(4-methylthiazol-5-yl)phenyl)ethyl)pyrrolidine-2-carboxamide] | < 100 | > 75 |
| Cc1ncsc1-c1ccc([C@H](C)NC(=O)[C@@H]2C[C@@H](O)CN2C(=O)C(c2cc(COc3cc(N4CCN5c6cc(-c7ccccc7O)nnc6NCC5C4)ccn3)no2)C(C)C)cc1 (stereo partly drawn) [Example 75, (2S,4R)-4-hydroxy-1-(2-(3-(((4-(2-(2-hydroxyphenyl)-5,6,6a,7,9,10-hexahydro-8H-pyrazino[1′,2′:4,5]pyrazino[2,3-c]pyridazin-8-yl)pyridin-2-yl)oxy)methyl)isoxazol-5-yl)-3-methylbutanoyl)N-((S)-1-(4-(4-methylthiazol-5-yl)phenyl)ethyl)pyrrolidine-2-carboxamide] | 100 to 1000 | > 75 |
| Cc1ncsc1-c1ccc([C@H](C)NC(=O)[C@@H]2C[C@@H](O)CN2C(=O)C(c2cc(CN3CCC(CN4CCN5c6cc(-c7ccccc7O)nnc6NC[C@H]5C4)CC3)no2)C(C)C)cc1 (stereo partly drawn) [Example 32, (2S,4R)-4-hydroxy-1-(2-(3-((4-(((S)-2-(2-hydroxyphenyl)-5,6,6a,7,9,10-hexahydro-8H-pyrazino[1′,2′:4,5]pyrazino[2,3-c]pyridazin-8-yl)methyl)piperidin-1-yl)methyl)isoxazol-5-yl)-3-methylbutanoyl)N-((S)-1-(4-(4-methylthiazol-5-yl)phenyl)ethyl)pyrrolidine-2-carboxamide] | < 100 | > 75 |
| Cc1ncsc1-c1ccc([C@H](C)NC(=O)[C@@H]2C[C@@H](O)CN2C(=O)[C@@H](c2cc(OCCN3CCC(CN4CCN5c6cc(-c7ccccc7O)nnc6NC[C@H]5C4)C3)no2)C(C)C)cc1 (stereo partly drawn) [Example 15, (2S,4R)-4-hydroxy-1-((2R)-2-(3-(2-(3-(((S)-2-(2-hydroxyphenyl)-5,6,6a,7,9,10-hexahydro-8H-pyrazino[1′,2′:4,5]pyrazino[2,3-c]pyridazin-8-yl)methyl)pyrrolidin-1-yl)ethoxy)isoxazol-5-yl)-3-methylbutanoyl)-N-((S)-1-(4-(4-methylthiazol-5-yl)phenyl)ethyl)pyrrolidine-2-carboxamide] | < 100 | > 75 |
| Cc1ncsc1-c1ccc([C@H](C)NC(=O)[C@@H]2C[C@@H](O)CN2C(=O)[C@@H](c2cc(OCCN3CCC(N4CCN5c6cc(-c7ccccc7O)nnc6NC[C@H]5C4)C(F)C3)no2)C(C)C)cc1 (stereo partly drawn) [Example 14, (2S,4R)-1-((2R)-2-(3-(2-(3-fluoro-4-((S)-2-(2-hydroxyphenyl)-5,6,6a,7,9,10-hexahydro-8H-pyrazino[1′,2′:4,5]pyrazino[2,3-c]pyridazin-8-yl)piperidin-1-yl)ethoxy)isoxazol-5-yl)-3-methylbutanoyl)-4-hydroxy-N-((S)-1-(4-(4-methylthiazol-5-yl)phenyl)ethyl)pyrrolidine-2-carboxamide] | < 100 | > 75 |
| Cc1ncsc1-c1ccc([C@H](C)NC(=O)[C@@H]2C[C@@H](O)CN2C(=O)[C@@H](c2cc(CCCN3CCCC(CN4CCN5c6cc(-c7ccccc7O)nnc6NC[C@H]5C4)C3)no2)C(C)C)cc1 (single isomer, unassigned) [Example 89] | < 100 | – |
| Cc1ncsc1-c1ccc([C@H](C)NC(=O)[C@@H]2C[C@@H](O)CN2C(=O)[C@@H](c2cc(CCCN3CCC(N4CCN5c6cc(-c7ccccc7O)nnc6NC[C@H]5C4)CC3)no2)C(C)C)cc1 [Example 33, (2S,4R)-4-hydroxy-1-((R)-2-(3-(3-(4-((S)-2-(2-hydroxyphenyl)-5,6,6a,7,9,10-hexahydro-8H-pyrazino[1′,2′:4,5]pyrazino[2,3-c]pyridazin-8-yl)piperidin-1-yl)propyl)isoxazol-5-yl)-3-methylbutanoyl)-N-((S)-1-(4-(4-methylthiazol-5-yl)phenyl)ethyl)pyrrolidine-2-carboxamide] | < 100 | > 75 |
